Experimental findings from ChEMBL document CHEMBL1201862, “PubChem BioAssay data set” (2004) are described below.

Each structure is given as a SMILES string.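 Test compounds were applied to cells in 96-well plates for 48 hours at 5 doses. At the GI50, growth is halved.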 Active and inactive are the calls of the source. Cut-off read from the data, not from the text of the source: active = GI50 up to about 1.1 µM and inactive = higher. Where only a bound is given, the exact number is not on record here.

Test systems include OVCAR-5; A549; HCC 2998; MCF7; Hs-578T; SNB-19; SK-MEL-2; SF-295; OVCAR-8; CCRF-CEM; HCT-116; SK-MEL-28; SK-OV-3; SNB-75; COLO 205; HOP-92; SK-MEL-5; HCT-15; A498; DU-145.
Assay in all cases: NCI tumour cell line growth inhibition, 48 h

Turning to `CN(C)CCCn1c2c3ccccc3ccc2c2oc(=O)c3ccccc3c21`, the GI50 was 32.6 µM (inactive) in the experiment with OVCAR-5; 4.53 µM (inactive) in the experiment with A549; 1.22 µM (inactive) with HCC 2998; 7.19 µM (inactive) in the experiment with MCF7; > 36.6 µM (inactive) in the experiment with Hs-578T; 5.96 µM (inactive) in the experiment on SNB-19. The GI50 is 9.23 µM (inactive) in the experiment with SK-MEL-2; 3.62 µM (inactive) in the experiment with SF-295; 3.57 µM (inactive) in the experiment with OVCAR-8; 3.31 µM (inactive) in the experiment on CCRF-CEM; 2.48 µM (inactive) with HCT-116; 7.46 µM (inactive) in the experiment on SK-MEL-28. Besides, the GI50 with SK-OV-3 was 14.8 µM (inactive); in the experiment with SNB-75, 2.48 µM (inactive); in the experiment on COLO 205 it was 2.48 µM (inactive); with HOP-92 it was 23.8 µM (inactive); in the experiment on SK-MEL-5, 9.53 µM (inactive); in the experiment on HCT-15 it was 1.57 µM. The GI50 in the experiment on A498 was 13.3 µM (inactive).
As for `Nc1nc(Cl)cc(NCC2(CO)CC(=O)C2)n1`, the GI50 with OVCAR-5, in the experiment on A549, with HCC 2998, in the experiment on MCF7, in the experiment on Hs-578T and in the experiment on SNB-19 was > 100 µM (inactive) each time. In addition, the GI50 in the experiment on SK-MEL-2 was > 100 µM (inactive); with SF-295, > 100 µM (inactive); in the experiment on OVCAR-8 it was 65.3 µM (inactive); with CCRF-CEM it was > 100 µM (inactive); with HCT-116 it was > 100 µM (inactive); in the experiment on SK-MEL-28, > 100 µM (inactive). In addition, the GI50 was > 100 µM (inactive) in the experiment on SK-OV-3; > 100 µM (inactive) in the experiment on COLO 205; > 100 µM (inactive) with DU-145; > 100 µM (inactive) in the experiment on HOP-92; > 100 µM (inactive) with SK-MEL-5; more than 100 µM in the experiment with HCT-15.
Regarding `O=C(N=C1N(c2ccccc2)C(=O)C(=O)N1c1ccccc1)c1ccccc1`, the GI50 in the experiment with OVCAR-5 is 27.5 µM (inactive); in the experiment with A549 it was 5.48 µM (inactive); in the experiment with HCC 2998, 8.53 µM (inactive); with Hs-578T it was 4.65 µM (inactive); with SNB-19, 13.3 µM (inactive); in the experiment with SK-MEL-2, 15.5 µM (inactive). For the same compound, the GI50 in the experiment on SF-295 is 11.3 µM (inactive); in the experiment on OVCAR-8, 9.35 µM (inactive); in the experiment on CCRF-CEM, 24.8 µM (inactive); in the experiment on HCT-116, 3.99 µM (inactive); with SK-MEL-28, 17.5 µM (inactive); with SK-OV-3, 4.68 µM (inactive). The GI50 with SNB-75 is 11.3 µM (inactive); in the experiment with COLO 205 it was 13.9 µM (inactive); with DU-145 it was 6.7 µM (inactive); in the experiment on HOP-92 it was 2.99 µM (inactive); in the experiment with SK-MEL-5, 14.9 µM (inactive); in the experiment on HCT-15, 9.66 µM. In addition, in the experiment on A498, the GI50 is 18.2 µM (inactive).
For the compound `O=C1CC(CC(O)C(O)CO)CC(=O)N1` (stereo not given), the GI50 with A549, in the experiment on HCC 2998, in the experiment with MCF7, in the experiment on Hs-578T, in the experiment on SNB-19 and with SF-295 was > 100 µM (inactive) each time. For the same compound, the GI50 with OVCAR-8, with CCRF-CEM, in the experiment on HCT-116, in the experiment on SK-MEL-28, in the experiment with DU-145 and in the experiment with HOP-92 was > 100 µM (inactive) each time. Also, the GI50 was > 100 µM (inactive) in the experiment on SK-MEL-5, more than 100 µM in the experiment on HCT-15 and > 100 µM (inactive) with A498.
Consider `COC(=O)CCCc1nc2ccccc2nc1/N=N/c1ccccc1`, for which the GI50 in the experiment on OVCAR-5 was > 100 µM (inactive); in the experiment with A549, 29.9 µM (inactive); in the experiment with HCC 2998, > 100 µM (inactive); in the experiment with MCF7, 30.8 µM (inactive); in the experiment on SNB-19, 56 µM (inactive); in the experiment with SK-MEL-2 it was > 100 µM (inactive). Further, the GI50 was 41 µM (inactive) with SF-295; 22 µM (inactive) with OVCAR-8; 30.1 µM (inactive) with CCRF-CEM; 30.3 µM (inactive) with HCT-116; 38.5 µM (inactive) in the experiment on SK-MEL-28; > 100 µM (inactive) in the experiment with SK-OV-3. Besides, the GI50 was 38.5 µM (inactive) in the experiment on SNB-75; 3.71 µM (inactive) in the experiment with COLO 205; 48.3 µM (inactive) with DU-145; > 100 µM (inactive) with HOP-92; 61.1 µM (inactive) in the experiment on SK-MEL-5; 23.9 µM in the experiment with HCT-15. In the experiment on A498, the GI50 is > 100 µM (inactive).
Consider `CSc1cc(Br)ccc1-n1c(C(=O)c2ccccc2)c(SC)n(-c2ccccc2)c1=O`, for which the GI50 is > 100 µM (inactive) in the experiment on OVCAR-5; > 100 µM (inactive) in the experiment on A549; 86.9 µM (inactive) with HCC 2998; 63.1 µM (inactive) in the experiment on MCF7; > 100 µM (inactive) in the experiment on Hs-578T; > 100 µM (inactive) in the experiment on SNB-19. In addition, the GI50 with SF-295 is 84.5 µM (inactive); in the experiment with OVCAR-8 it was > 100 µM (inactive); in the experiment on HCT-116 it was 49.3 µM (inactive); in the experiment on SK-MEL-28, > 100 µM (inactive); in the experiment with SK-OV-3 it was > 100 µM (inactive); in the experiment with SNB-75, > 100 µM (inactive). Besides, the GI50 was 47.2 µM (inactive) with COLO 205, > 100 µM (inactive) with HOP-92, 67.8 µM (inactive) in the experiment with SK-MEL-5 and 23 µM in the experiment with HCT-15.
Take `CC(C)(C)OC(=O)c1ccc(NCC2=C(Br)C(=O)C=CC2=O)cc1`: the GI50 with OVCAR-5 was 23.1 µM (inactive); in the experiment with A549, 57.8 µM (inactive); in the experiment on HCC 2998, 21.5 µM (inactive); in the experiment on MCF7 it was 19.3 µM (inactive); in the experiment on Hs-578T, 19.1 µM (inactive); in the experiment on SNB-19 it was > 54.7 µM (inactive). In addition, the GI50 in the experiment on SK-MEL-2 was 28.6 µM (inactive); in the experiment with SF-295 it was 65.9 µM (inactive); with OVCAR-8 it was 16.5 µM (inactive); in the experiment on CCRF-CEM it was 2.42 µM (inactive); with HCT-116, 17.7 µM (inactive); with SK-MEL-28, 19.6 µM (inactive). Moreover, the GI50 is > 64.9 µM (inactive) in the experiment on SK-OV-3; 39.5 µM (inactive) in the experiment with SNB-75; 18.2 µM (inactive) with COLO 205; 35.7 µM (inactive) with DU-145; 14.5 µM (inactive) in the experiment on HOP-92; 15.9 µM (inactive) in the experiment on SK-MEL-5. Further, the GI50 in the experiment with HCT-15 was 15.6 µM.
With `COC(=O)C(=O)C(C(=O)C(=O)Nc1ccc(Cl)cc1Cl)c1nc2ccc(Cl)cc2nc1O` (stereo not given), the GI50 with OVCAR-5, in the experiment with A549, with HCC 2998, with MCF7, in the experiment with Hs-578T and in the experiment on SNB-19 was > 100 µM (inactive) throughout. For the same compound, the GI50 was > 100 µM (inactive) in the experiment with SK-MEL-2; > 100 µM (inactive) with SF-295; > 100 µM (inactive) in the experiment with OVCAR-8; 69.7 µM (inactive) in the experiment on CCRF-CEM; > 100 µM (inactive) in the experiment with HCT-116; > 100 µM (inactive) in the experiment on SK-MEL-28. The GI50 with SK-OV-3 was > 100 µM (inactive); with SNB-75, 65.2 µM (inactive); in the experiment on COLO 205 it was > 100 µM (inactive); in the experiment on DU-145, > 100 µM (inactive); with HOP-92, 58.5 µM (inactive); in the experiment with SK-MEL-5, > 100 µM (inactive). This compound had a GI50 in the experiment on HCT-15 of more than 100 µM.
On to `Nc1ccc2c(c1)NCCN2`, for which the GI50 in the experiment with OVCAR-5 is > 100 µM (inactive); in the experiment on A549 it was 18.2 µM (inactive); with HCC 2998, > 100 µM (inactive); in the experiment on MCF7, 4.53 µM (inactive); in the experiment on Hs-578T it was 7.76 µM (inactive); with SNB-19 it was 9.84 µM (inactive). Moreover, the GI50 in the experiment on SK-MEL-2 is > 100 µM (inactive); with SF-295, 64.1 µM (inactive); in the experiment with OVCAR-8 it was 50.9 µM (inactive); with HCT-116 it was > 100 µM (inactive); in the experiment on SK-MEL-28, > 100 µM (inactive); with SNB-75, > 100 µM (inactive). Further, the GI50 is 9.66 µM (inactive) with COLO 205; 25.7 µM (inactive) in the experiment with DU-145; > 100 µM (inactive) with HOP-92; 5.11 µM (inactive) in the experiment on SK-MEL-5; 61.9 µM in the experiment with HCT-15.
As to `Cc1cc(C)cc(Nc2nnc3n2S(=O)(=O)c2cc(C#N)c(Cl)cc2S3)c1`, the GI50 in the experiment with OVCAR-5 was 2.83 µM (inactive); in the experiment with A549, 16.2 µM (inactive); with MCF7, 1.87 µM (inactive); in the experiment with Hs-578T, 2.68 µM (inactive); with SNB-19 it was 6.78 µM (inactive); in the experiment on SK-MEL-2, 7.53 µM (inactive). Further, the GI50 with SF-295 is 2.84 µM (inactive); in the experiment with CCRF-CEM, 1.07 µM (active); in the experiment with HCT-116, 2.17 µM (inactive); in the experiment on SK-MEL-28 it was 3.21 µM (inactive); in the experiment with SK-OV-3, 6.56 µM (inactive); in the experiment with SNB-75, 2.32 µM (inactive). Besides, the GI50 in the experiment with COLO 205 is 10.9 µM (inactive); in the experiment with DU-145 it was 3.14 µM (inactive); with SK-MEL-5, 7.55 µM (inactive); with HCT-15 it was 2.52 µM; in the experiment on A498, 16.3 µM (inactive).
With `O=C1c2cccc(NCCCNCCO)c2C(=O)c2cccc(NCCCNCCO)c21`, the GI50 with OVCAR-5 is 2.31 µM (inactive); in the experiment on A549, 2 µM (inactive); in the experiment on HCC 2998, 0.9 µM (active); with MCF7, 0.325 µM (active); with Hs-578T, 0.627 µM (active); in the experiment on SNB-19, 1.15 µM (inactive). In addition, the GI50 with SK-MEL-2 is 1.85 µM (inactive); in the experiment with OVCAR-8, 2.16 µM (inactive); in the experiment on CCRF-CEM it was 0.701 µM (active); in the experiment on SK-MEL-28, 1.83 µM (inactive); in the experiment on SK-OV-3 it was 2.25 µM (inactive); in the experiment with COLO 205, 1.8 µM (inactive). Also, the GI50 is 2.62 µM (inactive) with DU-145; 1.55 µM (inactive) in the experiment with HOP-92; 2 µM (inactive) in the experiment with SK-MEL-5; 8.99 µM in the experiment with HCT-15; 2.8 µM (inactive) with A498.
